This assay has as its system P. infestans. Nature of the assay: whole plant or invertebrate. It counts as in vivo. The settings on record: Phytophthora infestans, in Solanum tuberosum, read-out: P. infestans % inhibition.

The inhibition is how much of the control response was suppressed.

SMILES strings stand for the structures. Where a name gives a salt, the structure may show the parent alone.

`Clc1ccc(-c2cc(-c3cccc(N4CCOCC4)c3)[nH]n2)cc1` [Compound 3, 4-{3-[3-(4-Chlorophenyl)-1H-pyrazol-5-yl]phenyl}morpholine]: the inhibition at 100 µM is 20%.
Then `CN1CCOc2cc(-c3cc(-c4cccc(Br)c4)[nH]n3)ccc21` [Compound 44, 7-[5-(3-Bromophenyl)-1H-pyrazol-3-yl]-4-methyl-3,4-dihydro-2H-1,4-benzoxazine], with 5%; and `Nc1ccc(-c2cc(-c3ccccc3F)no2)cc1` [Compound 45, 5-(4-Aminophenyl)-3-(2-fluorophenyl)-isoxazole], with 76%.
Then `CC(=O)Nc1ccc(-c2cc(-c3ccccc3F)no2)cc1` [Compound 46, N-{4-[3-(2-Fluorophenyl)-isoxazol-5-yl]phenyl}acetamide], with 7%; and `Cc1ccc(S(=O)(=O)Nc2ccc(-c3cc(-c4ccccc4F)no3)cc2)cc1` [Compound 47, N-{4-[3-(2-Fluorophenyl)-isoxazol-5-yl]phenyl}-4-methylbenzenesulfonamide], with 19%.
Then `COc1cc(-c2cc(-c3cccc(C(F)(F)F)c3)no2)ccc1Cl` [Compound 48, 5-(4-Chloro-3-methoxyphenyl)-3-[3-(trifluoromethyl)phenyl]-isoxazole], with 21%; and `Oc1cc(-c2cc(-c3cccc(C(F)(F)F)c3)no2)ccc1Cl` [Compound 49, 5-(4-Chloro-3-hydroxyphenyl)-3-[3-(trifluoromethyl)phenyl]-isoxazole], with 3%; and `Brc1cccc(-c2cc(-c3ccc4c(c3)OCCO4)n[nH]2)c1` [Compound 50, 5-(3-Bromophenyl)-3-(2,3-dihydro-1,4-benzodioxin-6-yl)-1H-pyrazole], with 28%.
On to `COc1cccc(-c2nc(-c3ccc(F)cc3)no2)c1` [Compound 51, 3-(4-Fluorophenyl)-5-(3-methoxyphenyl)-1,2,4-oxadiazole], for which the inhibition at 100 µM stood at 8%.
Turning to `CCSc1ccc(-c2cc(-c3ccccc3Cl)no2)cc1` [Compound 52, 3-(2-Chlorophenyl)-5-[4-(ethylsulfanyl)phenyl]-1,2-oxazole], the inhibition at 100 µM was found to be 9%.
Under `Cc1ccc(-c2cc(-c3cccc(OC(F)(F)F)c3)no2)cc1C` [Compound 53, 5-(3,4-Dimethylphenyl)-3-[3-(trifluoromethoxy)phenyl]-isoxazole] stands 23%; under `O=C(Nc1cccc(-c2c[nH]c(-c3ccc(F)cc3)n2)c1)C(F)(F)F` [Compound 54, 2,2,2-Trifluoro-N-{3-[2-(4-fluorophenyl)-1H-imidazol-5-yl]phenyl}acetamide], 91%; under `O=C(Nc1ccc(O)cc1)c1ccc(-c2nc(-c3ccc(N4CCCC4)cc3)c[nH]2)cc1` [Compound 55, N-(4-Hydroxyphenyl)-4-{4-[4-(pyrrolidin-1-yl)phenyl]-1H-imidazol-2-yl}benzamide], 85%.
Under `O=C(O)c1ccc(-c2n[nH]c(-c3ccc(Cl)cc3)n2)cc1` [Compound 56, 4-[5-(4-Chlorophenyl)-1H-1,2,4-triazol-3-yl]benzoic acid hydrochloride] stands 17%.
Then `COc1ccc(NC(=O)Nc2ccc(-c3cc(-c4cccc(F)c4)on3)cc2)cc1` [Compound 57, 1-{4-[5-(3-Fluorophenyl)-1,2-oxazol-3-yl]phenyl}-3-(4-methoxyphenyl)urea], with 8%; and `NCCCC[C@H](N)C(=O)Nc1ccc(-c2nc(-c3ccc(OC(F)(F)F)cc3)n[nH]2)cc1` [Compound 58, (2S)-2,6-Diamino-N-(4-{3-[4-(trifluoromethoxy)phenyl]-1H-1,2,4-triazol-5-yl}phenyl)hexanamide dihydrochloride], with 89%; and `O=C(c1ccc(-c2n[nH]c(-c3ccc(Cl)cc3)n2)cc1)N1CCOCC1` [Compound 59, {4-[5-(4-Chlorophenyl)-1H-1,2,4-triazol-3-yl]phenyl}(morpholin-4-yl)methanone hydrochloride], with 87%.
On to `Oc1ccc(-c2coc(-c3ccc4ncccc4c3)n2)cc1` [Compound 60, 6-[4-(4-Hydroxyphenyl)-1,3-oxazol-2-yl]quinoline], for which the inhibition at 100 µM is 9%.
Then `O=C(Nc1ccc(-c2nc(-c3ccc(OC(F)(F)F)cc3)n[nH]2)cc1)C(F)(F)F` [Compound 61, 2,2,2-Trifluoro-N-(4-{5-[4-(trifluoromethoxy)phenyl]-1H-1,2,4-triazol-3-yl}phenyl)acetamide], with 71%; and `O=C(O)c1cccc(-c2noc(-c3ccccc3F)n2)c1` [Compound 62, 3-[5-(2-Fluorophenyl)-1,2,4-oxadiazol-3-yl]benzoic acid], with 64%; and `COc1ccc(-c2nc(-c3ccc(C(F)(F)F)cc3)no2)cc1` [Compound 64, 5-(4-Methoxyphenyl)-3-[4-(trifluoromethyl)phenyl]-1,2,4-oxadiazole], with 23%.
Under `CSc1ccc(Cl)c(-c2nc(-c3cccc(OC(F)(F)F)c3)no2)c1` [Compound 65, 5-[2-Chloro-5-(methylsulfanyl)phenyl]-3-[3-(trifluoromethoxy)phenyl]-1,2,4-oxadiazole] stands 31%; under `CCc1ccc(-c2nc(-c3ccc(OC(F)(F)F)cc3)c[nH]2)cc1` [Compound 66, 2-(4-Ethylphenyl)-4-[4-(trifluoromethoxy)phenyl]-1H-imidazole], 29%; under `COc1ccc(-c2noc(-c3cccc(Cl)c3)n2)cc1` [Compound 67, 5-(3-Chlorophenyl)-3-(4-methoxyphenyl)-1,2,4-oxadiazole], 55%.
For `COc1ccc(-c2noc(-c3ccccc3Br)n2)cc1` [Compound 68, 5-(2-Bromophenyl)-3-(4-methoxyphenyl)-1,2,4-oxadiazole], the inhibition at 100 µM amounted to 17%.
Under `O=C(O)c1cccc(-c2ncc(-c3ccc(C(F)(F)F)cc3O)o2)c1` [Compound 69, 3-{5-[2-Hydroxy-4-(trifluoromethyl)phenyl]-1,3-oxazol-2-yl}benzoic acid] stands 99%.
Then `Oc1ccc(-c2noc(-c3ccc(Cl)cc3)n2)cc1` [Compound 70, 5-(4-Chlorophenyl)-3-(4-hydroxyphenyl)-1,2,4-oxadiazole], with 33%.
Under `FC(F)(F)c1cccc(-c2cc(-c3ccc4c(c3)OCCO4)n[nH]2)c1` [Compound 71, 3-(2,3-Dihydro-1,4-benzodioxin-6-yl)-5-[3-(trifluoromethyl)phenyl]-1H-pyrazole] stands 36%; under `Oc1ccc(-c2nc(-c3ccc(C(F)(F)F)cc3)no2)cc1` [Compound 72, 5-(4-Hydroxyphenyl]-3-[4-(trifluoromethyl)phenyl]-1,2,4-oxadiazole], 83%; under `O=[N+]([O-])c1ccc(-c2nc(-c3cccc(C(F)(F)F)c3)no2)cc1` [Compound 73, 5-(4-Nitrophenyl)-3-[3-(trifluoromethyl)phenyl]-1,2,4-oxadiazole], 2%.
As for `Nc1ccc(-c2nc(-c3cccc(C(F)(F)F)c3)no2)cc1` [Compound 74, 5-(4-Aminophenyl)-3-[3-(trifluoromethyl)phenyl]-1,2,4-oxadiazole], the inhibition at 100 µM was 18%.
Under `CC(C)OC(=O)Nc1ccc(-c2nc(-c3cccc(C(F)(F)F)c3)no2)cc1` [Compound 75, Propan-2-yl (4-{3-[3-(trifluoromethyl)phenyl]-1,2,4-oxadiazol-5-yl}phenyl)carbamate] stands 31%; under `COC(=O)Nc1ccc(-c2nc(-c3ccc(OC(F)(F)F)cc3)n[nH]2)cc1` [Compound 77, Methyl (4-{5-[4-(trifluoromethoxy)phenyl]-1H-1,2,4-triazol-3-yl}phenyl)carbamate], 6%.
Then `Oc1ccc(-c2c[nH]c(-c3ccc(Cl)cc3)n2)cc1` [Compound 78, 2-(4-Chlorophenyl)-5-(4-hydroxyphenyl)-1H-imidazole], with 79%.
On to `Cc1cccc(-c2nc(-c3ccc(Cl)c(Cl)c3)c[nH]2)c1` [Compound 79, 5-(3,4-Dichlorophenyl)-2-(3-methylphenyl)-1H-imidazole], for which the inhibition at 100 µM was 81%.
Then `Clc1cccc(-c2cc(-c3ccc4c(c3)OCCO4)n[nH]2)c1` [Compound 80, 5-(3-Chlorophenyl)-3-(2,3-dihydro-1,4-benzodioxin-6-yl)-1H-pyrazole], with 77%; and `Oc1ccc(F)cc1-c1c[nH]c(-c2ccc(C(F)(F)F)cc2)n1` [Compound 81, 5-(2-Hydroxy-5-fluorophenyl)-2-[4-(trifluoromethyl)phenyl]-1H-imidazole], with 10%.
For the molecule `COCCNC(=O)Nc1ccc(-c2n[nH]c(-c3ccc(C(F)(F)F)cc3)n2)cc1` [Compound 82, 1-(2-Methoxyethyl)-3-(4-{5-[4-(trifluoromethyl)phenyl]-1H-1,2,4-triazol-3-yl}phenyl)urea], the inhibition at 100 µM turned out to be 18%.
With `O=C(O)c1ccc(-c2cc(-c3cccc(C(F)(F)F)c3)no2)cc1` [Compound 83, 4-{3-[3-(Trifluoromethyl)phenyl]-1,2-oxazol-5-yl}benzoic acid], the inhibition at 100 µM is 26%.
Then `FC(F)(F)Oc1ccc(-c2c[nH]c(-c3ccc(Br)cc3)n2)cc1` [Compound 84, 2-(4-Bromophenyl)-5-[4-(trifluoromethoxy)phenyl]-1H-imidazole], with 96%; and `Cc1ccc(-c2cc(-c3ccc(O)cc3)no2)cc1` [Compound 85, 3-(4-Hydroxyphenyl)-5-(4-methylphenyl)-1,2-oxazole], with 10%; and `COc1cccc(-c2cnc(-c3cccc(Br)c3)[nH]2)c1` [Compound 86, 2-(3-Bromophenyl)-5-(3-methoxyphenyl)-1H-imidazole], with 75%.
Then `Oc1cccc(-c2cnc(-c3cccc(Br)c3)[nH]2)c1` [Compound 87, 2-(3-Bromophenyl)-5-(3-hydroxyphenyl)-1H-imidazole], with 99%; and `O=C(Nc1cccc(-c2c[nH]c(-c3ccc(F)cc3)n2)c1)c1ccccc1` [Compound 88, N-{3-[2-(4-fluorophenyl)-1H-imidazol-5-yl]phenyl}benzamide], with 28%.

Source of the values: patent publication US20250228242A1 (priority 2021, published 2025).
